Data set [1] has as its target T1, hPIV-3 HN (UniProt P08492).
T1 sequence (P08492 1-572): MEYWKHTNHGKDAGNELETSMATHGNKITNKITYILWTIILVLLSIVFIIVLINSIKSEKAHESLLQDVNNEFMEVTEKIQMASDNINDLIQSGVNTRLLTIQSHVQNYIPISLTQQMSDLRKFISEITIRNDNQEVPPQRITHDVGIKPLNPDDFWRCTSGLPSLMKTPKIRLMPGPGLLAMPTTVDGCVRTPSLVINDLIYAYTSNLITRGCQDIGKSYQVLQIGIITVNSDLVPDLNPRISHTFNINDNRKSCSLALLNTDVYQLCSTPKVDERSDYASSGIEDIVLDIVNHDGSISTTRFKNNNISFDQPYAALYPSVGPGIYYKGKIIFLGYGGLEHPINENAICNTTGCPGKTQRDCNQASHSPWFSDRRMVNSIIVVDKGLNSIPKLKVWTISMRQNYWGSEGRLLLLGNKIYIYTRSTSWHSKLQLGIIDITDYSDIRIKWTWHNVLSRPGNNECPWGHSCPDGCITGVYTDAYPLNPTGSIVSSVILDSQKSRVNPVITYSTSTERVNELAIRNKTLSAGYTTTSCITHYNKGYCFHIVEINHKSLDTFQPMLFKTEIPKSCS
It counts as biochemical, hPIV-3 (strain C-243). On the set-up: rows headed: NI Mean IC50; hPIV-3 HN; 3 independent experiments; Ki; Km value for MUN; other: whole hPIV-3 virus, [I]=0; fold improvement in NI assay; other: versus 6; hPIV-3 HN NI IC50; other: text; other: text, unit given as M.

Data set [2] deals with T1, hPIV-3 HN. It counts as biochemical, hPIV-3 (strain C-243). On the set-up: rows headed: HI Mean IC50; hPIV-3 HN; 3 independent experiments; fold improvement in HI assay; other: versus 6; hPIV-3 HN HI IC50; other: text; other: text, unit given as M.
Data set [3] concerns the target T1, hPIV-3 HN. It counts as biochemical, hPIV-3 (strain C-243). On the set-up: rows headed: NI Mean IC50; hPIV-3 HN; 3 independent experiments; Ki; Km value for MUN; other: whole hPIV-3 virus, [I]=0; fold improvement in NI assay; other: versus 6; hPIV-3 HN NI IC50; other: text; other: text, unit given as M. This is another data set of the same source.
Data set [4] addresses T1, hPIV-3 HN. It counts as biochemical, hPIV-3 (strain C-243). On the set-up: rows headed: NI hPIV-3 IC50. The settings on record: read-out: NI hPIV-3 IC50.
Data set [5] concerns hPIV-3. As to the kind of experiment: Virus growth inhibition assay, titration of progeny virus (focus forming assay) in LLC-MK2 cells. The class given is cell-based, hPIV-3 (strain C-243).
The subject of data set [6] is hPIV-3. As to the kind of experiment: In situ ELISA virus growth inhibition. It counts as cell-based, hPIV-3 (strain C-243). On the technique in general: ELISA stands for enzyme-linked immunosorbent assay.
Data set [7] has as its target T2, hPIV-3 HN (Human parainfluenza 3 virus, UniProt P08492). It counts as biochemical, hPIV-3 (strain C-243). The settings on record: Table 5; read-out: hPIV-3 NI (IC50 values).
Data set [8] concerns the target T2, hPIV-3 HN. It counts as binding. The settings on record: 20 μM hPIV-3 HN, protein:ligand 1:100.
The next data set relates to LLC-MK2 cells. As to the kind of experiment: MTT assay for compound cytotoxicity. The settings on record: 48 h, 30 μM, highest concentration tested.
The target of the next data set is hPIV-1 NI (Human parainfluenza 1 virus, UniProt P16071). As to the kind of experiment: biochemical. As to the method:
IC50 values for a number of compounds of the first aspect were determined by standard assay methods previously described in Guillon, P et al, Nature Communications (2014).

The structures appear in SMILES notation. Like-named read-outs stand apart in the source and are kept apart here.

Chain of hPIV-1 NI (P16071 whole entry): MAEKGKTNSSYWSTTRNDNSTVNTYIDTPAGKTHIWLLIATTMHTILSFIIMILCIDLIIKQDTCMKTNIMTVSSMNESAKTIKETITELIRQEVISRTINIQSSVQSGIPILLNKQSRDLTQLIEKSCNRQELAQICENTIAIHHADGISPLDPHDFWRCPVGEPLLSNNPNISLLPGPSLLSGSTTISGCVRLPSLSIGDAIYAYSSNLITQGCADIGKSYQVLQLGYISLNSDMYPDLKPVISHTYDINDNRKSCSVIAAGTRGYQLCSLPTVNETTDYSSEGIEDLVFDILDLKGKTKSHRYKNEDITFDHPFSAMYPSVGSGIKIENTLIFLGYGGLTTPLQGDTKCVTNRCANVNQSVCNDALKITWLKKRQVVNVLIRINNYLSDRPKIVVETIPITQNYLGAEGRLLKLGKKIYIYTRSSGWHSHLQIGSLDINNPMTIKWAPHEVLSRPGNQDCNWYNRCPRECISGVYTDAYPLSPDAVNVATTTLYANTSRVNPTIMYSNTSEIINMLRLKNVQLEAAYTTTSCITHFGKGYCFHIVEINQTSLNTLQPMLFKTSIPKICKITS

The IC50 is the concentration needed to halve the response being measured. By Ki is commonly meant the equilibrium dissociation constant of an inhibitor or competing ligand from its target. A lower Ki goes with higher affinity. On to `CC(C)C(=O)N[C@H]1[C@H]([C@H](O)[C@H](O)CO)OC(C(=O)O)=C[C@@H]1N=[N+]=[N-]` [Compound 6, BCX 2798, reference compound], for which the IC50 on hPIV-3 HN [1] (read-out: NI Mean IC50) is 21.5 µM; on hPIV-3 HN [1] (read-out: hPIV-3 HN NI IC50), 21.5 µM; at hPIV-3 HN [2] (read-out: HI Mean IC50) it was 16.1 µM; at hPIV-3 HN [2] (read-out: hPIV-3 HN HI IC50) it was 16.1 µM; at hPIV-3 HN [4], 18 µM; with hPIV-3 [6] (LLC-MK2, A549 and NHBE cells, read-out: Virus growth inhibition IC50, range over all three cell lines) it was 54.6 to 131 µM. The IC50 came out at 54.6 ± 3.8 µM with hPIV-3 [6] (LLC-MK2 cells, read-out: Virus growth IC50 (in situ ELISA)); 79.3 ± 1 µM with hPIV-3 [6] (NHBE cells, read-out: Virus growth IC50 (in situ ELISA)); 130 µM with hPIV-3 [6] (Table 4, A549 cells, hPIV-3, read-out: Cell-based ELISA IC50). At hPIV-3 HN [3], this molecule showed a Ki of 16 µM. Moreover, the “Virus growth inhibition (reduction in virus titre)” value in the data set with hPIV-3 [5] (2 μM inhibitor, 48 h, LLC-MK2 cells, low MOI) was found to be 14%.

In the case of `CC(=O)N[C@H]1[C@H]([C@H](O)[C@H](O)CO)OC(C(=O)[O-])=C[C@@H]1n1cc(-c2ccccc2)nn1.[Na+]` [Compound 8, Sodium 5-acetamido-2,6-anhydro-3,4,5-trideoxy-4-(4-phenyl-[1,2,3,]triazol-1-yl)-D-glycero-D-galacto-non-2-enonate], the IC50 at hPIV-3 HN [7] was 5.85 µM. The IC50 on hPIV-3 HN [1] (Table 2 prints no unit, μM, hPIV-3 HN, 3 independent experiments, read-out: NI Mean IC50) stood at 6.51 µM. In addition, on hPIV-3 HN [1] (read-out: hPIV-3 HN NI IC50), the IC50 is 6.5 µM. Also, the IC50 at hPIV-3 HN [2] (Table 2 prints no unit, μM, hPIV-3 HN, 3 independent experiments, read-out: HI Mean IC50) was determined as 4.58 µM. The IC50 at hPIV-3 HN [2] (read-out: hPIV-3 HN HI IC50) turned out to be 4.6 µM. Besides, the “Relative STD NMR effect, ArH4′” value at hPIV-3 HN [8] (reference signal) is 100%. For the same molecule, on hPIV-3 HN [8] (relative to ArH4′), the “Relative STD NMR effect, ArH2′ ArH6′” value is 92%; the “Relative STD NMR effect, ArH3′ ArH5′” value was 100%; the “Relative STD NMR effect, H3” value is given as 85%; the “Relative STD NMR effect, H4” value came out at 59%. Further, at hPIV-3 HN [8] (relative to ArH4′), the “Relative STD NMR effect, H5” value came to 50%; the “Relative STD NMR effect, H6” value is listed as 49%; the “Relative STD NMR effect, H7” value turned out to be 30%; the “Relative STD NMR effect, H8” value worked out at 30%. In addition, on hPIV-3 HN [8] (relative to ArH4′), the “Relative STD NMR effect, H9” value came out at 12%; the “Relative STD NMR effect, H9′” value was found to be 18%; the “Relative STD NMR effect, NHAc” value is given as 41%; the “Relative STD NMR effect, Triazole CH” value came to 63%. In addition, in the data set with LLC-MK2 cells, the “Cytotoxic effect (MTT)” value is reported as “No cytotoxic effect”. Inhibition against hPIV-1 NI was half-maximal at 168 µM (IC50).

Broadly, the inhibition is the share of the control response that was lost under treatment. `CC(C)C(=O)N[C@H]1[C@H]([C@H](O)[C@H](O)CO)OC(C(=O)[O-])=C[C@@H]1n1cc(-c2ccccc2)nn1.[Na+]` [Compound 10, Sodium 2,6-anhydro-3,4,5-trideoxy-5-isobutyramido-4-(4-phenyl-[1,2,3,]triazol-1-yl)-D-glycero-D-galacto-non-2-enonate]: the “Cytotoxic effect (MTT)” value with LLC-MK2 cells is “No cytotoxic effect”. For the same molecule, the inhibition at 2 µM in the data set on hPIV-3 [5] (Human respirovirus 3, LLC-MK2, 48 h, read-out: Virus growth inhibition (reduction in virus titre)) was 94%. Also, the IC50 with hPIV-3 [6] (Human respirovirus 3, A549, read-out: Virus growth IC50 (in situ ELISA)) is 10.3 ± 0.3 µM; in the data set on hPIV-3 [6] (Human respirovirus 3, LLC-MK2, read-out: Virus growth IC50 (in situ ELISA)) it was 2.1 ± 0.6 µM; in the data set with hPIV-3 [6] (Human respirovirus 3, NHBE, read-out: Virus growth IC50 (in situ ELISA)) it was 13.9 ± 0.7 µM; in the data set with hPIV-3 [6] (Human respirovirus 3, read-out: Virus growth inhibition IC50, range over all three cell lines), 2.1 to 13.9 µM. For the same molecule, the “times more potent than 6, cell-based assay” value in the data set with hPIV-3 [6] (LLC-MK2 cells, versus 6) was about 26 times.

In general, Km refers to the substrate concentration at which the rate is half of its maximum. As for `CC(=O)N[C@H]1[C@H]([C@H](O)[C@H](O)CO)O[C@@](Oc2ccc3c(C)cc(=O)oc3c2)(C(=O)O)C[C@@H]1O` [MUN, 2′-(4-methylumbelliferyl) […]-D-N-acetylneuraminide], the Km on hPIV-3 HN [3] (read-out: Km value for MUN) worked out at 5.1 mM.

Source of the values: US10028938B2, “Antiviral agents and uses thereof” (Griffith University, priority 2014, dated 2018).
